Where only a bound is given, the exact number is not on record here.

Experiment [1] is described as follows: microbe, parasite or virus in culture. The note with it: Mycobacterium tuberculosis, 72 h, read-out: pIC50 (converted).
A short description of experiment [2]: microbe, parasite or virus in culture. The following applies: Mycobacterium tuberculosis, 96 h, read-out: pIC50 (converted).

Take `CN(C)CCCN1CC2(CCN(C3CCCOC3)CC2)OC1=O` (configuration not stated): the IC50 in experiment [1] and in experiment [2] was more than 50.1 µM each time.
On to `CC(C)(C)c1noc(CCC(=O)N2CCSCC2)n1`, for which the IC50 in experiment [1] and in experiment [2] was more than 501 µM in each case.
For `CCCc1nc(N(C)Cc2ccco2)c2c(n1)c(C)nn2CC`, the values for the IC50 in experiment [1] and in experiment [2] were 25.2 µM and 12 µM, respectively.
The matching figures for `COC(=O)[C@H](C)NC(=O)C1(c2ccccc2F)CC1`: 187 µM and more than 501 µM.
For the compound `CCc1ccccc1OC1CN(C(=O)c2ccsc2)C1`, the IC50 in experiment [1] was 8.19 µM; in experiment [2], more than 50.1 µM.
Regarding `Cc1cc(C)c(CN2CCOC(CN)C2)cc1C` (configuration not stated), the IC50 is 183 µM in experiment [1] and 259 µM in experiment [2].
The matching figures for `CN(Cc1cccc(C(N)=O)c1)C(=O)c1occc1Br`: more than 501 µM and more than 501 µM.
Consider `CNc1cc(C)nc(NCc2cc(C)cc3c(C)c(C)[nH]c23)n1`, for which the IC50 in experiment [1] was 23.6 µM; in experiment [2] it was 35.8 µM.
For the compound `COc1cccc(CN(C)C(=O)c2occc2C)n1`, the figures for the IC50 in experiment [1] and in experiment [2] were 188 µM and 279 µM, respectively.
With `N#CCCSc1nnc(Cc2ccccc2F)o1`, the IC50 in experiment [1] and in experiment [2] was more than 50.1 µM throughout.
In the case of `Cn1cc(C(=O)N[C@@H]2CN(Cc3ccc(F)cc3)[C@@H]3CCCO[C@@H]32)cn1`, the IC50 in experiment [1] and in experiment [2] was more than 50.1 µM each time.
Consider `CC(C)N1[C@H](CN2CCCC2)C[C@@H]2CN(Cc3ccoc3)CC[C@@H]21`, for which the IC50 in experiment [1] and in experiment [2] was more than 50.1 µM throughout.
In the case of `N#Cc1cccc(OCCn2cnc(C#N)n2)c1`, the IC50 is more than 501 µM in experiment [1] and 304 µM in experiment [2].
For `CCn1nc(C)c2nc(C)nc(NCCc3ccc(C)cc3)c21`, in that order: 47.4 µM and 42.5 µM.
The matching figures for `Cc1cncc(NS(=O)(=O)CCc2ccccc2)c1`: 314 µM and more than 501 µM.
For the compound `Cn1c2c(c(=O)n1C)CN(C(=O)c1ccco1)CCC2`, the IC50 in experiment [1] and in experiment [2] was more than 50.1 µM throughout.
For the compound `Fc1ccccc1OC1CCN(CCn2cc3ccccc3n2)CC1`, the IC50 is more than 50.1 µM in experiment [1] and 47.9 µM in experiment [2].
Regarding `CCC(N)C(=O)N1CCN(c2ccc(F)cc2Cl)CC1` (configuration not stated), the IC50 was 322 µM in experiment [1] and 266 µM in experiment [2].
As for `CCC1(CC)CN(C(=O)NCCC(C)C)CCS1(=O)=O`, the IC50 in experiment [1] was more than 501 µM; in experiment [2] it was 407 µM.
Take `CC(C)CS(=O)(=O)NCc1ccc2c(c1)OCO2`: the IC50 is 183 µM in experiment [1] and more than 501 µM in experiment [2].
Regarding `COc1cc(C(=O)CCN(C)C)cc(OC)c1OC`, the IC50 in experiment [1] is 196 µM; in experiment [2], 338 µM.
For the compound `CN1CCCC(c2cccc(-c3cccc(C(F)(F)F)c3)n2)C1` (configuration not stated), the IC50 in experiment [1] is 2.88 µM; in experiment [2], 3.45 µM.
On to `CCC(C(=O)N1CCC(N)CC1)c1ccccc1` (configuration not stated), for which the IC50 was 118 µM in experiment [1] and more than 501 µM in experiment [2].
For `O=C1N(Cc2ccccc2)CCN1S(=O)(=O)Cl`, the IC50 in experiment [1] is 259 µM; in experiment [2], 248 µM.
In the case of `C=C(C)COCCNC(=O)c1c(O)cccc1F`, the IC50 in experiment [1] and in experiment [2] was more than 501 µM in each case.
For `COc1ccc(CNC(C)c2ccc(Cl)c(Cl)c2)c(OC)c1OC` (configuration not stated), the IC50 in experiment [1] was 45.1 µM; in experiment [2] it was more than 50.1 µM.
For `CC(C)CC(NC(N)=O)C(=O)Nc1cc(F)cc(F)c1` (configuration not stated), the IC50 in experiment [1] is 239 µM; in experiment [2] it was more than 501 µM.
With `O=C(Nc1cccnc1)[C@H]1COC[C@H]2CN(C3CCCC3)C[C@H]21`, the IC50 in experiment [1] and in experiment [2] was more than 50.1 µM throughout.
As for `COCCC(=O)N1CCN(CC2CC2)c2ccccc21`, the IC50 is 11.7 µM in experiment [1] and more than 50.1 µM in experiment [2].
Turning to `FC(F)Oc1ccc(NCc2nc(C3CC3)no2)c(OC(F)F)c1`, the IC50 was 24.2 µM in experiment [1] and more than 50.1 µM in experiment [2].
For the compound `Cc1cccc(C2(O)CCN(Cc3ccccc3N3CCCC3)CC2)c1`, the IC50 in experiment [1] is 12.1 µM; in experiment [2], 20.7 µM.
`COc1coc(CN2CCCC(CCc3ccccc3C)C2)cc1=O` (configuration not stated): the IC50 in experiment [1] is 16.1 µM; in experiment [2], 16.2 µM.
`Cc1cccc(C[S+]([O-])CC(=O)NCC2CC2)c1` (configuration not stated): the IC50 in experiment [1] and in experiment [2] was more than 501 µM each time.
With `CCNc1nnc(SC(C)C)s1`, the IC50 was 120 µM in experiment [1] and 54.2 µM in experiment [2].
On to `COc1ccnc(NCCS(=O)(=O)c2ccccc2)n1`, for which the IC50 in experiment [1] and in experiment [2] was more than 501 µM throughout.
Regarding `Cc1ncsc1C(=O)NC(C)C(C)C` (configuration not stated), the IC50 in experiment [1] and in experiment [2] was more than 501 µM throughout.
With `C=Cc1ccc(CN2C(=O)C3(CCNCC3)Nc3ccccc32)cc1`, the figures for the IC50 in experiment [1] and in experiment [2] were 28.2 µM and 26.5 µM, respectively.
`CC(=O)c1ccc(NCC(=O)NC(C)C(C)C)cc1` (configuration not stated): the IC50 in experiment [1] and in experiment [2] was 182 µM throughout.
Regarding `c1ccc(OCCCOC2CNC2)cc1`, the IC50 is 177 µM in experiment [1] and more than 501 µM in experiment [2].
`Cc1cnn(CCNCc2ccc3c(c2)OCCO3)c1`: the IC50 in experiment [1] is 127 µM; in experiment [2], 211 µM.
As to `NCc1noc2c1CCCC2`, the IC50 in experiment [1] and in experiment [2] was more than 501 µM throughout.
`CC(C)(C)n1cc(NC(=O)C2CN(Cc3ccccc3)CCO2)cn1` (configuration not stated): the IC50 in experiment [1] and in experiment [2] was more than 50.1 µM in each case.
As to `CCCNc1nnc(SCC(C)(C)O)s1`, the IC50 is 297 µM in experiment [1] and 159 µM in experiment [2].
For `CCCc1nc(C)cc(N2CCC3(CCC(=O)N(CCO)C3)CC2)n1`, in that order: more than 50.1 µM and more than 50.1 µM.
For `COc1cccc(CCN)n1`, in that order: 194 µM and 192 µM.
In the case of `CN(C)S(=O)(=O)N1CCC(Oc2ccccc2Cl)CC1`, the IC50 in experiment [1] is 343 µM; in experiment [2] it was 232 µM.
The matching figures for `COCc1n[nH]c2c1CN(C(=O)c1ccncc1)C2`: 29.7 µM and more than 50.1 µM.
For the compound `CC(Sc1nc2ccccc2o1)C(=O)N1CCOCC1` (configuration not stated), the IC50 is 19.2 µM in experiment [1] and 11.7 µM in experiment [2].
The matching figures for `CS(=O)(=O)CCN1CCC(Oc2ccc(F)cc2)CC1`: 221 µM and 280 µM.
As for `NC1CCN(c2ccccc2OC(F)F)C1` (configuration not stated), the IC50 was 135 µM in experiment [1] and more than 501 µM in experiment [2].
Consider `COc1cc(Br)ccc1CCCNC(=O)c1c[nH]nn1`, for which the IC50 is 143 µM in experiment [1] and 335 µM in experiment [2].
For the compound `O=C(NCc1ccnc(N2CCCC2)c1)c1ccsc1`, the values for the IC50 in experiment [1] and in experiment [2] were 114 µM and 141 µM, respectively.
Regarding `NCc1cccc(C(=O)NCc2ccco2)c1`, the IC50 in experiment [1] and in experiment [2] was more than 501 µM throughout.
With `Cc1ccc(OCC(=O)Nc2nnn(C)n2)cc1`, the IC50 in experiment [1] was 274 µM; in experiment [2], more than 501 µM.
For `Cc1c(C(=O)NC2=NCCS2)oc2ccccc12`, the IC50 was 279 µM in experiment [1] and 247 µM in experiment [2].
On to `CCCOc1cc(CNC(=O)c2nccn2C)ccn1`, for which the IC50 in experiment [1] was 248 µM; in experiment [2], 201 µM.
In the case of `NCc1n[nH]c(-c2ccc(Br)cc2)n1`, the IC50 is 24.3 µM in experiment [1] and more than 50.1 µM in experiment [2].
With `CC(=O)Nc1cccc(-c2ccccc2CCN)c1`, the IC50 in experiment [1] is 49.7 µM; in experiment [2], more than 50.1 µM.
For `CN(C)c1cc2c(nn1)CCN(C(=O)c1cc3ccccc3[nH]c1=O)C2`, in that order: more than 50.1 µM and more than 50.1 µM.
In the case of `CCSc1ncc(CN2CCN(c3nc(C)cnc3C)CC2)cn1`, the IC50 in experiment [1] was more than 50.1 µM; in experiment [2] it was 28.7 µM.
`CN(Cc1nnc2n1CCC2)C(=O)c1ccc2c(c1)OCCCO2`: the IC50 in experiment [1] and in experiment [2] was more than 50.1 µM each time.
As to `COc1ccc(COCC(O)CN(C)c2ccc(C)cc2C)cc1` (configuration not stated), the IC50 was 16 µM in experiment [1] and 16.8 µM in experiment [2].
Take `CCOC(=O)c1ccc(N2CCC(CCO)CC2)nc1`: the IC50 in experiment [1] was 84 µM; in experiment [2], 198 µM.
Regarding `OC1(CNCCN2CCc3ccccc32)CNCCOC1` (configuration not stated), the IC50 in experiment [1] and in experiment [2] was more than 50.1 µM in each case.
In the case of `CC(C)Cc1noc(CNc2cc3c(cc2Cl)OCCCO3)n1`, the IC50 is more than 50.1 µM in experiment [1] and 27.1 µM in experiment [2].
For `Cc1ccc(Cl)c(NC(=O)NC2(C)CCOC2)c1` (configuration not stated), in that order: more than 50.1 µM and more than 50.1 µM.
For the compound `COc1ccc(C(N)c2ccc(OC)cc2OC)cc1` (configuration not stated), the values for the IC50 in experiment [1] and in experiment [2] were 186 µM and 291 µM, respectively.
On to `CCc1ccc(C(=O)N2CCN(Cc3ccc(F)cc3)CC2)s1`, for which the figures for the IC50 in experiment [1] and in experiment [2] were 19.9 µM and 28.4 µM, respectively.
As for `FC(F)(F)Sc1ccc(NCc2nnc(C3CC3)o2)cc1`, the IC50 was 36.4 µM in experiment [1] and 14.3 µM in experiment [2].
Consider `O=C(NCCc1cccnc1)c1cc(C2CC2)on1`, for which the IC50 in experiment [1] and in experiment [2] was more than 501 µM throughout.
Regarding `COc1ccc(C(=O)NCc2ncnn2C)cc1Br`, the IC50 was 326 µM in experiment [1] and more than 501 µM in experiment [2].
As to `FC(F)Oc1cccc(C2CNCCO2)c1` (configuration not stated), the IC50 in experiment [1] was 34 µM; in experiment [2] it was 112 µM.
As to `CN(C)CCN(C)c1ccc(-c2nc(COc3ccccc3)no2)cn1`, the IC50 is 48.4 µM in experiment [1] and 14.4 µM in experiment [2].
On to `CCCn1nnnc1NCc1ccsc1`, for which the IC50 in experiment [1] was 171 µM; in experiment [2] it was 132 µM.
As for `Cc1nn(CCN(C)c2ccccc2)c(N)c1C#N`, the IC50 was 265 µM in experiment [1] and more than 501 µM in experiment [2].
As to `CC(=O)N1CCCC(c2cnc(-c3c(C)nn(C)c3C)cn2)C1` (configuration not stated), the IC50 in experiment [1] and in experiment [2] was more than 50.1 µM in each case.
With `CCOc1ccc2cc(S(=O)(=O)NCCO)ccc2c1`, the IC50 in experiment [1] is 5.84 µM; in experiment [2], 9.01 µM.
As for `Cc1cnc(C(=O)NCCCc2ccccn2)cn1`, the values for the IC50 in experiment [1] and in experiment [2] were 111 µM and more than 501 µM, respectively.
The matching figures for `CC(Cn1cccn1)NCc1csc(-c2ccc3c(c2)OCO3)n1` (configuration not stated): 1.35 µM and more than 50.1 µM.
As for `Cc1nc(Cn2cc(S(=O)(=O)N(C)C)ccc2=O)cs1`, the IC50 in experiment [1] was 326 µM; in experiment [2], more than 501 µM.
The matching figures for `COCCNc1ccc(OC)c(OC)c1`: 257 µM and more than 501 µM.

(Values after ChEMBL document CHEMBL3988442, “University of Dundee, Small-Polar-MMV Screening Library” (2021).)
